Reference: article PMC12040169 (PLOS Biology, 2025)

Test: in vitro
Settings: human, hela cells, % viability

Structure (SMILES)	viability at 28.5 h, 10 µM	viability at 28.5 h, 10 µM (bulk resorufin, single well)
COc1ccc(OC)c(NS(=O)(=O)c2ccc(C(=O)O)cc2)c1 [CBK267603]	106%	–
CC(C)OC(=O)CN1C(=O)N2CCCN=C2c2ccccc21 [CBK284394]	89.4%	–
CCOc1cc(C(=S)N2CCOCC2)ccc1OCc1ccccc1 [CBK027466]	99.1%	–
COc1cccc(Nc2c(C(=O)N3CCCCC3)cnc3nc(C)ccc23)c1 [CBK287817]	96%	–
CC(=O)Oc1cc(C(F)(F)F)nc(NCc2ccc(Cl)cc2)n1 [CBK000500]	94.7%	–
Cc1cc(NS(=O)(=O)c2ccc(NC(=O)/C=C/c3ccc(C)o3)cc2)nc(C)n1 [CBK265474]	96.5%	–
COc1cc(CO)c(-c2c[nH][nH]c2=O)cc1OC [CBK009476]	85.5%	–
Clc1ccccc1-c1nsc(Nc2ccccc2)n1 [CBK016152]	96.2%	–
COc1ccc2c(c1)C1(CC(=O)N(CCc3scnc3C)C1=O)C(=O)N2Cc1ccccc1 (stereo not shown) [CBK075240]	95.7%	–
CCCS(=O)(=O)NC[C@H]1C[C@@H]2CCN1C[C@@H]2c1cc(-c2ccccc2)nn1C [CBK289095]	93.8%	–
Fc1ccc(Oc2nccnc2N2CCN(Cc3cccnc3)CC2)cc1 [CBK083011]	87.5%	–
C=C(C)Cn1c(SCC(C)C)nnc1-c1ccccc1Cl [CBK200078]	92.4%	–
CCOC(=O)CNS(=O)(=O)Cc1ccccc1[N+](=O)[O-] [CBK034439]	95.3%	–
c1ccc2c(c1)OCC(COc1nccc(N3CCCN(Cc4ccc5c(c4)OCO5)CC3)n1)O2 (stereo not shown) [CBK083235T]	85.7%	–
O=C(Cc1ccccc1)Nc1ccccc1C(=O)NCc1cccnc1 [CBK269228]	96.1%	–
CC(NC(=O)CC(F)(F)F)c1nc(-c2ccncc2)cs1 (stereo not shown) [CBK306370]	88.5%	–
CC(C)CNC(=S)N[C@H]1CC[C@@]2(c3cccnc3)CCN(Cc3ccccc3)[C@H]2C1 [CBK028460]	125%	–
COc1ccc(Cc2c(C)nc3c(C(=O)NCC4CCCO4)cnn3c2C)cc1 (stereo not shown) [CBK162183]	88.5%	–
CCc1ccc(CN2CCN(C(=O)c3ccncc3)CC2)cc1 [CBK301211G]	92.7%	–
CCN(C)c1c(C)nc2c(OCc3ccccc3C(=O)OC)cccn12 [CBK147321]	95.5%	–
Fc1ccc(CNc2c(-c3ccco3)nc3cnccn23)cc1 [CBK283694]	92%	–
O=C(NCCCc1ccc(F)cc1)c1cccc(-n2cnnc2)c1 [CBK282713]	102%	–

Structure (SMILES)	viability at 28.5 h, 10 µM	viability at 28.5 h, 10 µM (bulk resorufin, single well)
Cc1ccc(N(CC(=O)N/N=C/c2ccc(Cl)cc2)S(=O)(=O)c2ccccc2)cc1 [CBK262182]	98.3%	–
Cc1cn(S(=O)(=O)c2ccc(Cl)cc2)cn1 [CBK026492]	113%	–
C=CCc1cccc(Cl)c1OCCN1CCNCC1 [CBK266071G]	105%	–
CN1C(=O)C2(CC(=O)N(CC3CCCCC3)C2=O)c2cc(F)ccc21 (stereo not shown) [CBK075257]	106%	–
Cc1cc(C)cc(NC(=O)c2ccccc2NS(=O)(=O)c2cccc(Cl)c2)c1 [CBK113887]	94.9%	–
O=C(O)C1CSC(c2ccc(-c3cccc(Cl)c3)o2)N1 (stereo not shown) [CBK286997]	97.5%	–
O=C(NCc1ccncc1)c1ccc(-n2ccnc2)c(-n2cccc2)c1 [CBK285367]	88.4%	–
COCc1nc2ccccc2n1CC(=O)N1CCC(c2ccccc2)C1 (stereo not shown) [CBK282211]	97.1%	–
C/C(N)=C(/C#N)C(NC(=O)C1CCCCC1)(C(F)(F)F)C(F)(F)F [CBK267902]	91.1%	–
COc1ccccc1CC(=O)N1[C@H](Cc2ccccc2)C[C@@H]2NCCCCC[C@H]21 [CBK285978]	96.3%	–
Cc1ccc(N(CC(=O)N/N=C/C(C)C)S(=O)(=O)c2ccccc2)c(C)c1 [CBK262397]	92.5%	–
COc1ccc(-c2nnc(SCC(=O)Nc3ccccc3[N+](=O)[O-])n2C)cc1 [CBK265609]	103%	–
O=C(O)CCCCn1c2c(c3ccccc31)CCCC2 [CBK000253]	98.9%	–
CCN(CC(=O)Nc1ccc2c(c1)OCCO2)S(=O)(=O)c1ccsc1C(=O)O [CBK296717]	95.5%	–
COc1cc(CN2CCN(Cc3cccc4ccccc34)CC2)c([N+](=O)[O-])cc1OC [CBK074450G]	106%	–
N#Cc1ccccc1Cn1ccc2c(N3CCNCC3)cccc21 [CBK200015C]	102%	–
Cc1ccc(C2C(C(=O)c3sc(-c4ccccc4)nc3C)=C(O)C(=O)N2CCN(C)C)o1 (stereo not shown) [CBK234004]	107%	–
CNc1cc(N2CCN(S(=O)(=O)c3ccc(C)cc3)CC2)ccc1[N+](=O)[O-] [CBK266005]	104%	–
CCOC(=O)C1CCCCN1Cc1ccc(OC)c(O)c1 (stereo not shown) [CBK261560]	98.3%	–
O=C1C[C@H]2[C@H](CC3(SCCS3)[C@@H]2CO)O1 [CBK006615]	90.2%	–
CN(Cc1ccccc1)c1nc(C(F)(F)F)cc(=O)[nH]1 [CBK000319]	92%	–
Cc1c(NS(=O)(=O)c2cc(C(=O)O)c(Cl)cc2Cl)c(=O)n(-c2ccccc2)n1C [CBK296123]	90.3%	–

Structure (SMILES)	viability at 28.5 h, 10 µM	viability at 28.5 h, 10 µM (bulk resorufin, single well)
CN(C(=O)c1cccnc1)C(CC1CCCCC1)C1CCCCC1 (stereo not shown) [CBK015849]	99.1%	–
COc1ccc([C@@H]2CCN(C(=O)c3cc(F)cc(F)c3)C[C@H]2O)cc1 [CBK283757]	97%	–
COc1ccc(C)cc1S(=O)(=O)n1cc2c3c(cccc31)CN(C(=O)CN(C)C)C2 [CBK155549T]	93.3%	–
CC(CCc1ccccc1)N1CCN(S(=O)(=O)c2ccc3ccccc3c2)CC1 (stereo not shown) [CBK264240]	104%	–
O=C(CCc1ccccc1)N1CCCC1c1n[nH]cc1-c1ccncc1 (stereo not shown) [CBK283436]	91.4%	–
Cc1ccc(S(=O)(=O)Nc2cccc(C(=O)N3CCN(C)CC3)c2)cc1[N+](=O)[O-] [CBK038976]	89.5%	–
NNC(=O)CCn1c2ccc(Cl)cc2c2cc(Cl)ccc21 [CBK261413]	88.8%	–
CCN=C(S)NS(=O)(=O)c1ccc(C)cc1 [CBK288452]	86.2%	–
OC1(c2cccnc2)C2CCCC1CN(Cc1ccc(F)cc1)C2 (stereo not shown) [CBK285204]	89.8%	–
CCn1c(=O)c(C=Cc2cccc(Br)c2)nc2cc(C(=O)O)ccc21 [CBK295364]	110%	–
COc1cc(F)ccc1S(=O)(=O)NC1CC(C)(C)NC(C)(C)C1 [CBK266428]	112%	–
CC(=O)c1c(C)nn(CCC(=O)Nc2ccc(Cl)c(Cl)c2)c1C [CBK269829]	99.3%	–
Cc1ccc(C)c(OCC(=O)Nc2ccccc2C(=O)N2CCN(C)CC2)c1 [CBK269924]	91.1%	–
CC(/C=C1\SC(=S)N(CCC(=O)Nc2ccc(O)c(C(=O)O)c2)C1=O)=C\c1ccccc1 [CBK263875]	107%	–
CC(C)C(=O)Nc1ccc2nc(-c3ccoc3)c(-c3ccoc3)nc2c1 [CBK286304]	96.9%	–
O=c1[nH]c2ncc(-c3ccc(OC(F)(F)F)cc3)nc2n1Cc1ccc(Cl)cc1 [CBK064409]	103%	–
O=C(NC1CCS(=O)(=O)C1)c1c[nH]c2ccccc2c1=O (stereo not shown) [CBK304295]	88.7%	–
CCOc1cccc(-c2cncc(NCc3cccs3)n2)c1 [CBK066034]	104%	–
COc1cc(CNCCc2c[nH]c3ccccc23)cc(Cl)c1OC [CBK269861C]	88.5%	–
CCn1cc(CN(CC(C)C)C(=O)c2c(C)nc3ccccn23)cn1 [CBK306862]	97.8%	–
Cc1onc(-c2ccccc2Cl)c1C(=O)N(Cc1nc(-c2ccccc2)no1)C1CCCCC1 [CBK268790]	108%	–
NS(=O)(=O)c1ccc(CCNC(=O)c2ccc(C#CC3(O)CCCCC3)cc2)cc1 [CBK263104]	93.9%	–

Structure (SMILES)	viability at 28.5 h, 10 µM	viability at 28.5 h, 10 µM (bulk resorufin, single well)
FC(F)(F)c1ccc2c(c1)nc(S)n2C1CC1 [CBK288483]	86.2%	–
OCCNCc1cc(Br)ccc1OCc1ccc(F)cc1 [CBK266421C]	96%	–
Cc1nc(COc2ccc(F)cc2)sc1C(=O)O [CBK305074]	98%	–
Cc1cnn(CC2CCCCN2CC(=O)NCc2ccccn2)c1 (stereo not shown) [CBK304041]	110%	–
O=C(CN1CCN(CC(=O)NC2CC2)CC1)Nc1cc(Cl)ccc1Cl [CBK306091]	84.8%	–
COCCCN1C(=O)C(O)=C(C(=O)c2ccc(C)o2)C1c1ccc(OC)cc1 (stereo not shown) [CBK264863]	103%	–
CSc1ccc(CN(CCO)CCO)cc1 [CBK261931]	98.6%	–
COc1cccc2sc(NC(=O)c3ccc4occc4c3)nc12 [CBK149278]	96.8%	–
CC1(C)CC(=O)c2sc(NC(=O)CN3C(=O)CCC3=O)nc2C1 [CBK287558]	98.2%	–
CC(=O)Nc1cccc(NC(=O)CSc2ncnc3c2nnn3C)c1 [CBK287829]	91.9%	–
CC[C@H](Cn1nc(-c2cccs2)ccc1=O)NC(=O)C(C)C [CBK284296]	93.7%	–
O=C(C1CCCN(c2nc3c(-c4ccccc4)csc3c(=O)[nH]2)C1)N1CCOCC1 (stereo not shown) [CBK215582]	83.7%	–
CCC(c1nc2ccccc2c(=O)n1-c1cccnc1)N1C(=O)c2ccccc2C1=O (stereo not shown) [CBK268300]	99.1%	–
CC(CC(=O)O)CC(=O)Nc1ccccc1C(=O)O (stereo not shown) [CBK265671]	99.2%	–
Cc1cc(OC(C)C(=O)Nc2ccccc2C(=O)N2CCCC2)ccc1Cl (stereo not shown) [CBK269710]	94.3%	–
Cc1ccc(S(=O)(=O)NC(C)(C)CSc2ccccc2)cc1 [CBK268354]	88.6%	–
CC(C)[C@H](CO)n1c(=O)[nH]c2ncc(-c3cccc4ncccc34)nc21 [CBK064955]	99.5%	–
N#Cc1ccc(C(=O)Nc2ccc(N3CCNCC3)nc2)cc1 [CBK029435T]	95.2%	–
CCCCCOc1nccnc1N1CCNCC1 [CBK001901G]	103%	–
O=C1NC(=O)C(=Cc2ccccc2OS(=O)(=O)c2ccc3ccccc3c2)C(=O)N1 [CBK263599]	–	64%
Cc1cc(=O)oc2cc(Sc3sccc3[N+](=O)[O-])ccc12 [CBK002936]	90.5%	–
CN1C(=O)COc2ccccc2C/C=C/C[C@@H]2[C@H]1CCCN2S(=O)(=O)c1cccnc1 [CBK292067]	102%	–
